We go through 19 compounds from ChEMBL document CHEMBL4428035, “Urea derivates of ursolic, oleanolic and maslinic acid induce apoptosis and are selective cytotoxic for several human tumor cell lines” (Eur J Med Chem, 2016).

Structures are written as SMILES.

The subject of one experiment is 518A2. Description: Cytotoxicity against human 518A2 cells assessed as reduction in cell proliferation after 96 hrs by sulforhodamine B assay. It is filed as functional, cell-based. To be noted: 518A2, 96 h. On the technique in general: Sulforhodamine B stains cellular protein and so reports cell mass.
The subject of a further experiment is SW-1736. Put plainly: Cytotoxicity against human SW1736 cells assessed as reduction in cell proliferation after 96 hrs by sulforhodamine B assay. To be noted: SW-1736, 96 h. The experiment is classed as functional, cell-based.
For another experiment, the system named is MCF7. Put plainly: Cytotoxicity against human MCF7 cells assessed as reduction in cell proliferation after 96 hrs by sulforhodamine B assay. The note with it: MCF7, 96 h. It is filed as functional, cell-based.
The next experiment concerns HT-29. Put plainly: Cytotoxicity against human HT-29 cells assessed as reduction in cell proliferation after 96 hrs by sulforhodamine B assay. The note with it: HT-29, 96 h. The experiment is classed as functional, cell-based.
The next experiment relates to NIH3T3. Put plainly: Cytotoxicity against mouse NIH/3T3 cells assessed as reduction in cell proliferation after 96 hrs by sulforhodamine B assay. It is filed as ADME, cell-based. To be noted: NIH3T3, 96 h.
The subject of another experiment is FaDu. Put plainly: Cytotoxicity against human FADU cells assessed as reduction in cell proliferation after 96 hrs by sulforhodamine B assay. It is filed as functional, cell-based.
A further experiment concerns A549. Description: Cytotoxicity against human A549 cells assessed as reduction in cell proliferation after 96 hrs by sulforhodamine B assay. The experiment is classed as functional, cell-based. To be noted: A549, 96 h.
In the next experiment the test system is A2780. Put plainly: Cytotoxicity against human A2780 cells assessed as reduction in cell proliferation after 96 hrs by sulforhodamine B assay. The experiment is classed as functional, cell-based. The note with it: A2780, 96 h.

What is called EC50 is the concentration at which the effect is half-maximal. As to `CC(=O)O[C@@H]1C[C@]2(C)[C@H]3CC=C4[C@@H]5CC(C)(C)CC[C@]5(C(=O)Nc5ccccc5)CC[C@@]4(C)[C@]3(C)CC[C@H]2C(C)(C)[C@H]1OC(C)=O`, the EC50 with 518A2 is 0.7 µM; in the experiment on SW-1736, 2.9 µM; in the experiment with MCF7 it was 3.1 µM; in the experiment on HT-29 it was 2.9 µM; in the experiment with NIH3T3 it was 16 µM; in the experiment with FaDu, 1.4 µM. Also, in the experiment with A549, the EC50 is 9.5 µM.
For `CC(=O)O[C@H]1C[C@]2(C)[C@H]3CC=C4[C@@H]5[C@@H](C)[C@H](C)CC[C@]5(NC(=O)Oc5ccccc5)CC[C@@]4(C)[C@]3(C)CC[C@H]2C(C)(C)[C@H]1OC(C)=O`, the EC50 in the experiment on 518A2 was 3.1 µM; in the experiment with A2780 it was 1.6 µM; in the experiment with SW-1736, 5.5 µM; in the experiment with MCF7 it was 23.3 µM; in the experiment on HT-29 it was 7.6 µM; in the experiment with NIH3T3 it was more than 30 µM. For the same compound, in the experiment with A549, the EC50 turned out to be 10.1 µM.
As for `CC(=O)O[C@H]1C[C@]2(C)[C@H]3CC=C4[C@@H]5CC(C)(C)CC[C@]5(C(=O)O)CC[C@@]4(C)[C@]3(C)CC[C@H]2C(C)(C)[C@H]1OC(C)=O`, the EC50 with A2780 is 7.2 µM; in the experiment with SW-1736 it was more than 30 µM; in the experiment on MCF7 it was 15.1 µM; in the experiment with HT-29, 18.8 µM; with NIH3T3 it was 8 µM; with FaDu, more than 30 µM. For the same compound, the EC50 in the experiment on A549 turned out to be 29.1 µM.
Turning to `CC1(C)CC[C@]2(C(=O)NCc3ccccc3)CC[C@]3(C)C(=CC[C@@H]4[C@@]5(C)C[C@H]6OC(C)(C)O[C@@H]6C(C)(C)[C@@H]5CC[C@]43C)[C@@H]2C1`, the EC50 is 29.8 µM in the experiment with 518A2; 12.9 µM in the experiment on A2780; more than 30 µM with SW-1736; 14.6 µM in the experiment on MCF7; 25.9 µM with HT-29; 21.6 µM in the experiment with NIH3T3. The values for the EC50 in the experiment on FaDu and in the experiment on A549 were more than 30 µM and 26.4 µM, respectively.
Consider `CO[C@@H]1C[C@]2(C)[C@H]3CC=C4[C@@H]5CC(C)(C)CC[C@]5(C(=O)NCc5ccccc5)CC[C@@]4(C)[C@]3(C)CC[C@H]2C(C)(C)[C@H]1OC`, for which the EC50 in the experiment on 518A2 was determined as 18.1 µM; with SW-1736, 20.5 µM; in the experiment with MCF7, 14.6 µM; in the experiment with HT-29 it was 14.3 µM; in the experiment with NIH3T3 it was 14.7 µM; in the experiment on FaDu it was 17.2 µM. The EC50 in the experiment on A549 was 15.3 µM.
Take `CC(=O)O[C@H]1C[C@]2(C)[C@H]3CC=C4[C@@H]5CC(C)(C)CC[C@]5(C(=O)O)CC[C@@]4(C)[C@]3(C)CC[C@H]2C(C)(C)[C@@H]1OC(C)=O`: the EC50 in the experiment on 518A2 turned out to be 11.7 µM; in the experiment with A2780 it was 6.7 µM; in the experiment on SW-1736, 23.4 µM; in the experiment with MCF7, 14.8 µM; in the experiment on HT-29, 16.5 µM; with NIH3T3 it was 10 µM. In addition, the values for the concentration for a half-maximal effect (EC50) with FaDu and with A549 were 9.5 µM and 15.2 µM, respectively.
With `COCO[C@@H]1C[C@]2(C)[C@H]3CC=C4[C@@H]5CC(C)(C)CC[C@]5(C(=O)NCc5ccccc5)CC[C@@]4(C)[C@]3(C)CC[C@H]2C(C)(C)[C@H]1OCOC`, the EC50 in the experiment on 518A2 amounted to 22.1 µM; in the experiment with SW-1736, 18.2 µM; in the experiment on MCF7 it was 15.2 µM; in the experiment on HT-29, 15.9 µM; with NIH3T3, 15 µM; with FaDu, 17.9 µM. For the same compound, in the experiment with A549, the EC50 stood at 17.3 µM.
Turning to `CC(=O)O[C@H]1C[C@]2(C)[C@H]3CC=C4[C@@H]5CC(C)(C)CC[C@]5(C(=O)Nc5ccccc5)CC[C@@]4(C)[C@]3(C)CC[C@H]2C(C)(C)[C@H]1OC(C)=O`, the EC50 in the experiment with 518A2 was 2 µM; in the experiment with A2780, 1.3 µM; in the experiment with SW-1736 it was 2.7 µM; with MCF7, 1.8 µM; with HT-29 it was 2.6 µM; in the experiment on NIH3T3, more than 60 µM. For the same compound, the EC50 with A549 was 4.9 µM.
With `CC(=O)O[C@@H]1C[C@]2(C)[C@H]3CC=C4[C@@H]5CC(C)(C)CC[C@]5(C(=O)O)CC[C@@]4(C)[C@]3(C)CC[C@H]2C(C)(C)[C@H]1OC(C)=O`, the results for the half-maximal effective concentration (EC50) in the experiment on 518A2, in the experiment on MCF7 and in the experiment on FaDu were 23.1 µM, 16.6 µM and 17.8 µM, respectively.
For `CC(=O)O[C@H]1C[C@]2(C)[C@H]3CC=C4[C@@H]5[C@@H](C)[C@H](C)CC[C@]5(NC(=O)Nc5ccccc5)CC[C@@]4(C)[C@]3(C)CC[C@H]2C(C)(C)[C@H]1OC(C)=O`, the EC50 was 2.5 µM in the experiment on 518A2; 1.5 µM in the experiment with A2780; 6.8 µM with SW-1736; 19.6 µM with MCF7; 16 µM in the experiment on HT-29; more than 120 µM in the experiment on NIH3T3. The EC50 in the experiment on A549 is 12.4 µM.
As for `CO[C@@H]1C[C@]2(C)[C@H]3CC=C4[C@@H]5CC(C)(C)CC[C@]5(C(=O)NCc5ccccc5)CC[C@@]4(C)[C@]3(C)CC[C@H]2C(C)(C)[C@H]1O`, the EC50 with 518A2 amounted to 12.6 µM; with SW-1736, 18.1 µM; with MCF7, 11.7 µM; in the experiment on HT-29, 10.6 µM; with NIH3T3, 11.9 µM; in the experiment with FaDu, 11.4 µM. In the experiment with A549, the EC50 is 21.5 µM.
With `CC1(C)CC[C@]2(C(=O)NCc3ccccc3)CC[C@]3(C)C(=CC[C@@H]4[C@@]5(C)C[C@H]6OCO[C@@H]6C(C)(C)[C@@H]5CC[C@]43C)[C@@H]2C1`, the EC50 with 518A2 is more than 30 µM; in the experiment on SW-1736, more than 30 µM; with MCF7, 16.7 µM; in the experiment on HT-29 it was 20.8 µM; with NIH3T3, 13.9 µM; in the experiment with FaDu it was more than 30 µM. The EC50 in the experiment on A549 is more than 30 µM.
As to `CC(=O)O[C@@H]1[C@H](OC(C)=O)C[C@]2(C)[C@H]3CC=C4[C@@H]5CC(C)(C)CC[C@]5(C(=O)O)CC[C@@]4(C)[C@]3(C)CC[C@H]2C1(C)C`, the EC50 was found to be 15.3 µM in the experiment with 518A2; 10.5 µM with A2780; 22 µM in the experiment with SW-1736; 17.6 µM in the experiment with MCF7; 21.4 µM with HT-29; 14.2 µM in the experiment on NIH3T3. Further, the values for the EC50 with FaDu and with A549 were 17.3 µM and 20.4 µM, respectively.
Turning to `CC(=O)O[C@H]1C[C@]2(C)[C@H]3CC=C4[C@@H]5[C@@H](C)[C@H](C)CC[C@]5(C(=O)Nc5ccccc5)CC[C@@]4(C)[C@]3(C)CC[C@H]2C(C)(C)[C@H]1OC(C)=O`, the EC50 is 3.4 µM in the experiment with 518A2; 3.3 µM in the experiment on A2780; 4.4 µM in the experiment on SW-1736; 16.4 µM in the experiment with MCF7; 7.3 µM in the experiment on HT-29; more than 60 µM in the experiment with NIH3T3. Moreover, in the experiment on A549, the EC50 stood at 8.9 µM.
For the compound `CC1(C)CC[C@]2(C(=O)NCc3ccccc3)CC[C@]3(C)C(=CC[C@@H]4[C@@]5(C)C[C@@H]6O[C@@H]6C(C)(C)[C@@H]5CC[C@]43C)[C@@H]2C1`, the EC50 in the experiment on 518A2 was 15.7 µM; in the experiment on A2780, 8.6 µM; in the experiment on SW-1736, more than 30 µM; with MCF7, 8.6 µM; with HT-29, 26.6 µM; in the experiment on NIH3T3 it was 20.5 µM. Further, the values for the EC50 in the experiment on FaDu and in the experiment with A549 were more than 30 µM and 25.8 µM, respectively.
In the case of `CC(=O)O[C@H]1C[C@]2(C)[C@H]3CC=C4[C@@H]5CC(C)(C)CC[C@]5(NC(=O)c5ccccc5)CC[C@@]4(C)[C@]3(C)CC[C@H]2C(C)(C)[C@H]1OC(C)=O`, the EC50 was 3.5 µM in the experiment on 518A2; 3.1 µM in the experiment on A2780; 6.8 µM with SW-1736; 16.8 µM in the experiment on MCF7; 6.8 µM with HT-29; 12.2 µM with NIH3T3. The EC50 in the experiment with A549 was 11.1 µM.
Take `CC(=O)O[C@H]1C[C@]2(C)[C@H]3CC=C4[C@@H]5[C@@H](C)[C@H](C)CC[C@]5(NC(=O)c5ccccc5)CC[C@@]4(C)[C@]3(C)CC[C@H]2C(C)(C)[C@H]1OC(C)=O`: the EC50 in the experiment with 518A2 is 7.9 µM; in the experiment with A2780, 6.7 µM; with SW-1736, 14.9 µM; in the experiment on MCF7, more than 30 µM; with HT-29, 11.7 µM; with NIH3T3 it was 14.1 µM. In the experiment with A549, the EC50 is 16.4 µM.
`CC1(C)CC[C@]2(C(=O)NCc3ccccc3)CC[C@]3(C)C(=CC[C@@H]4[C@@](C)(CC=O)[C@H](C(C)(C)C=O)CC[C@]43C)[C@@H]2C1`: the EC50 came out at 6 µM in the experiment with 518A2; 7.5 µM with SW-1736; 5.4 µM in the experiment on MCF7; 8.3 µM with HT-29; 12.2 µM in the experiment on NIH3T3; 7 µM in the experiment on FaDu. Moreover, the EC50 with A549 came to 6.9 µM.
Regarding `CC(=O)O[C@@H]1C[C@]2(C)[C@H]3CC=C4[C@@H]5CC(C)(C)CC[C@]5(C(=O)NCCc5ccccc5)CC[C@@]4(C)[C@]3(C)CC[C@H]2C(C)(C)[C@H]1OC(C)=O`, the EC50 in the experiment with 518A2 came to 1.2 µM; in the experiment on SW-1736 it was 5.2 µM; in the experiment with MCF7, 5.8 µM; in the experiment with HT-29, 6.1 µM; with NIH3T3 it was 9.5 µM; in the experiment on FaDu, 2.8 µM. Moreover, the EC50 in the experiment with A549 turned out to be 9.2 µM.
